# Results published in article PMC6277767, “Broad and Region-Specific Impacts of the Synthetic Cannabinoid CP 55,940 in Adolescent and Adult Female Mouse Brains” (Frontiers in Molecular Neuroscience, 2018).
# Test system: CD1 female mouse brain lipidome
# Experiment: Brain-region lipid levels (HPLC/MS/MS lipidomics) 2 h after single i.p. 3 mg/kg CP 55,940 vs vehicle
# Type: in vivo
# Set-up: N-arachidonoyl phenylalanine level, Mean / N-stearoyl tryptophan level, Mean / N-stearoyl proline level, Mean / N-stearoyl leucine level, Mean / N-stearoyl phenylalanine level, Mean / N-stearoyl serine level, Mean / N-stearoyl methionine level, Mean: unit: moles per gram
# Description: The Bloomington Institutional Animal Care and Use Committee of Indiana University reviewed and approved the animal procedures. Female mice from the CD1 strain were utilized to match our study examining THC’s effects on the brain lipidome ([Leishman et al., 2018]). Mice were given a single i.p. injection of either 3 mg/kg CP or 1:1:18 cremophor:ethanol:saline vehicle (please refer to the section “3 mg/kg CP Is Relevant for Synthetic Cannabinoid Abuse and Has Stronger Effects on the Female Mouse Brain Lipidome During Adolescence” for a justification of dose and use of female mice). Three different age groups were given injections: PND 35 and PND 50 adolescents, and adult mice (PND 113). At least eight mice in each age group received CP and at least eight received vehicle. Matching the THC study time course ([Leishman et al., 2018]), mice were sacrificed via rapid decapitation 2 h after injection. Brains were immediately removed and flash-frozen in liquid nitrogen, and then stored at -80°C until dissections were performed. Brains were dissected on an ice-cold dissection plate into the following regions: STR, HIPP, CER, THAL, CTX, HYP, MID, and STEM. These abbreviations for these brain areas will be used exclusively when discussing the results generated by these specific dissections. Each dissected area was immediately placed in liquid nitrogen and then stored at -80°C until used for lipid extraction.
# Tissue extracts were performed as previously described ([Bradshaw et al., 2006]; [Stuart et al., 2013]; [Raboune et al., 2014]; [Leishman et al., 2016a],[b], [2017], [2018]). First, samples were shock frozen in liquid nitrogen, weighed, and transferred to a centrifuge tube. The mass of the largest sample was multiplied by 50 to determine how many milliliters of HPLC-grade methanol (Fisher, Fair Lawn, NJ, United States) to add. Then, samples were spiked with 500 pmol deuterium-labeled NAGly (d8NAGly; Cayman Chemical, Ann Arbor, MI, United States). Samples were placed on ice in darkness for 2 h then individually homogenized and centrifuged at 19,000 × g for 20 min at 20°C. Supernatants were diluted with HPLC water (purified in house) to make a solution of 75% water, 25% supernatant. Lipids were partially purified on C18 solid phase extraction columns (Agilent, Palo Alto, CA, United States). A series of four elutions with 1.5 mL of 60%, 75%, 85%, and 100% methanol were collected ([Stuart et al., 2013]; [Leishman et al., 2016a],[b], [2018]).
# As previously described ([Bradshaw et al., 2006]; [Tan et al., 2006]; [Smoum et al., 2010]; [Stuart et al., 2013]; [Tortoriello et al., 2013]; [Raboune et al., 2014]; [Leishman et al., 2016a],[b], [2017], [2018]), samples were analyzed using an Applied Biosystems API 3000 triple quadrupole mass spectrometer with electrospray ionization (Foster City, CA, United States). Using an Agilent XDB-C18 reversed phase analytical column and optimized mobile phase gradients, 20 μL from each elution were chromatographed. Two Shimadzu 10ADvp pumps (Columbia, MD, United States) provided the pressure for gradient elution. Mobile phase A: 20% methanol, 80% water (v/v) and 1 mM ammonium acetate (Sigma, St. Louis, MO, United States). Mobile phase B: 100% methanol, 1 mM ammonium acetate. Every method run began with 0% mobile phase B, reached 100% mobile phase B flowing at 0.2 mL/min, and gradually returned to 0% mobile phase B.
# This screening library will be referred to as the lipidome when discussing data from this study. HPLC/MS/MS data were analyzed using Analyst software (Applied Biosystems) ([Bradshaw et al., 2006]; [Tan et al., 2006]; [Stuart et al., 2013]; [Tortoriello et al., 2013]; [Raboune et al., 2014]; [Leishman et al., 2016a],[b], [2017], [2018]). Chromatograms (Supplementary Figure 3) were generated by determining the retention time of analytes from the analytical column with a [M-1] or [M+1] parent peak and a fragmentation peak corresponding to the programmed values. […]
# [1] = hypothalamus, PND 35 adolescent female mice, 3 mg/kg
# [2] = midbrain, PND 50, 3mg/kg CP 55,940
# [3] = midbrain, PND 50, 3mg/kg CP 55,940, ANOVA p .000
# [4] = midbrain, PND 50, 3mg/kg CP 55,940, ANOVA p .001
# [5] = midbrain, PND 50, 3mg/kg CP 55,940, ANOVA p .003
# [6] = midbrain, PND 50 female mice, 3mg/kg CP 55,940
structure (smiles),measurement,setting,value
"CCCCCCC(C)(C)c1ccc([C@@H]2C[C@H](O)CC[C@H]2CCCO)c(O)c1 [CP 55,940]","N-stearoyl leucine level, Mean",[1],1.34E-12
same,"N-stearoyl phenylalanine level, Mean",[1],1.92E-12
same,"N-stearoyl serine level, Mean",[1],2.17E-11
same,"N-stearoyl tryptophan level, Mean",[1],7.7E-12
same,"Oleic acid level, Mean",[1],7.46E-10
same,"PGE2 level, Mean",[1],2.42E-10
same,"PhosphoLEA level, Mean",[1],6.47E-11
same,2-linoleoyl glycerol Direction (relative to Veh),[2],↓
same,"2-oleoyl glycerol, Direction (relative to Veh)",[2],↓
same,6-ketoPGF1α Direction (relative to Veh),[2],↓
same,"Arachidonic acid, Direction (relative to Veh)",[2],↓
same,"Linoleic acid, Direction (relative to Veh)",[2],↓
same,N-arachidonoyl GABA Direction (relative to Veh),[2],↓
same,"N-arachidonoyl alanine, Direction (relative to Veh)",[2],↓
same,"N-arachidonoyl ethanolamine, Direction (relative to Veh)",[2],↓
same,N-arachidonoyl glycine Direction (relative to Veh),[2],↓
same,"N-arachidonoyl methionine, Direction (relative to Veh)",[2],↓
same,"N-arachidonoyl phenylalanine, Direction (relative to Veh)",[2],↓
same,"N-arachidonoyl tyrosine, Direction (relative to Veh)",[2],↓
same,N-docosahexaenoyl GABA Direction (relative to Veh),[2],↓
same,"N-docosahexaenoyl ethanolamine, Direction (relative to Veh)",[2],↓
same,N-docosahexaenoyl leucine Direction (relative to Veh),[2],↑
same,"N-linoleoyl ethanolamine, Direction (relative to Veh)",[2],↓
same,"N-oleoyl ethanolamine, Direction (relative to Veh)",[2],↓
same,"N-oleoyl methionine, Direction (relative to Veh)",[2],↓
same,"N-palmitoyl alanine, Direction (relative to Veh)",[2],↓
same,"N-palmitoyl ethanolamine, Direction (relative to Veh)",[2],↓
same,"N-palmitoyl leucine, Direction (relative to Veh)",[2],↑
same,"N-palmitoyl serine, Direction (relative to Veh)",[2],↓
same,"N-stearoyl methionine, Direction (relative to Veh)",[2],↓
same,"N-stearoyl phenylalanine, Direction (relative to Veh)",[2],↓
same,PGE2 Direction (relative to Veh),[2],↓
same,PGF2α Direction (relative to Veh),[2],↓
same,"Arachidonic acid, Magnitude (x Veh level)",[3],0.74 x Veh level
same,N-arachidonoyl glycine Magnitude (x Veh level),[3],0.65 x Veh level
same,"N-arachidonoyl methionine, Magnitude (x Veh level)",[3],0.64 x Veh level
same,"N-arachidonoyl phenylalanine, Magnitude (x Veh level)",[3],0.69 x Veh level
same,"N-arachidonoyl tyrosine, Magnitude (x Veh level)",[4],0.68 x Veh level
same,PGE2 Magnitude (x Veh level),[4],0.75 x Veh level
same,"N-palmitoyl leucine, Magnitude (x Veh level)","midbrain, PND 50, 3mg/kg CP 55,940, ANOVA p .002",1.33 x Veh level
same,N-docosahexaenoyl GABA Magnitude (x Veh level),[5],0.71 x Veh level
same,"N-linoleoyl ethanolamine, Magnitude (x Veh level)",[5],0.81 x Veh level
same,"Linoleic acid, Magnitude (x Veh level)","midbrain, PND 50, 3mg/kg CP 55,940, ANOVA p .004",0.75 x Veh level
same,PGF2α Magnitude (x Veh level),"midbrain, PND 50, 3mg/kg CP 55,940, ANOVA p .007",0.82 x Veh level
same,"N-palmitoyl ethanolamine, Magnitude (x Veh level)","midbrain, PND 50, 3mg/kg CP 55,940, ANOVA p .011",0.86 x Veh level
same,2-linoleoyl glycerol Magnitude (x Veh level),"midbrain, PND 50, 3mg/kg CP 55,940, ANOVA p .017",0.82 x Veh level
same,N-arachidonoyl GABA Magnitude (x Veh level),"midbrain, PND 50, 3mg/kg CP 55,940, ANOVA p .021",0.73 x Veh level
same,"N-docosahexaenoyl ethanolamine, Magnitude (x Veh level)","midbrain, PND 50, 3mg/kg CP 55,940, ANOVA p .023",0.81 x Veh level
same,"N-oleoyl methionine, Magnitude (x Veh level)","midbrain, PND 50, 3mg/kg CP 55,940, ANOVA p .026",0.54 x Veh level
same,"N-arachidonoyl ethanolamine, Magnitude (x Veh level)","midbrain, PND 50, 3mg/kg CP 55,940, ANOVA p .031",0.83 x Veh level
same,"N-oleoyl ethanolamine, Magnitude (x Veh level)","midbrain, PND 50, 3mg/kg CP 55,940, ANOVA p .037",0.83 x Veh level
same,"N-stearoyl methionine, Magnitude (x Veh level)","midbrain, PND 50, 3mg/kg CP 55,940, ANOVA p .042",0.78 x Veh level
same,"N-palmitoyl serine, Magnitude (x Veh level)","midbrain, PND 50, 3mg/kg CP 55,940, ANOVA p .048",0.84 x Veh level
same,N-arachidonoyl alanine Magnitude (x Veh level),"midbrain, PND 50, 3mg/kg CP 55,940, ANOVA p .057",0.62 x Veh level
same,N-docosahexaenoyl leucine Magnitude (x Veh level),"midbrain, PND 50, 3mg/kg CP 55,940, ANOVA p .063",1.47 x Veh level
same,"2-oleoyl glycerol, Magnitude (x Veh level)","midbrain, PND 50, 3mg/kg CP 55,940, ANOVA p .073",0.89 x Veh level
same,"N-stearoyl phenylalanine, Magnitude (x Veh level)","midbrain, PND 50, 3mg/kg CP 55,940, ANOVA p .077",0.85 x Veh level
same,"N-palmitoyl alanine, Magnitude (x Veh level)","midbrain, PND 50, 3mg/kg CP 55,940, ANOVA p .081",0.77 x Veh level
same,6-ketoPGF1α Magnitude (x Veh level),"midbrain, PND 50, 3mg/kg CP 55,940, ANOVA p .089",0.75 x Veh level
same,"2-arachidonoyl glycerol level, Mean",[6],3.27E-10
same,"2-linoleoyl glycerol level, Mean",[6],3.73E-10
same,"2-oleoyl glycerol level, Mean",[6],4.95E-09
same,"2-palmitoyl glycerol level, Mean",[6],3.34E-09
same,"6-ketoPGF1α level, Mean",[6],1.22E-11
same,"11-OH-THC level, Mean",[6],BDL
same,"11-nor-9-carboxyTHC level, Mean",[6],BDL
same,"Arachidonic acid level, Mean",[6],3.1E-10
same,"Cannabidiol level, Mean",[6],BDL
same,"Linoleic acid level, Mean",[6],2.67E-10
same,"N- stearoyl valine level, Mean",[6],9.43E-14
same,"N-arachidonoyl GABA level, Mean",[6],1.55E-11
same,"N-arachidonoyl alanine level, Mean",[6],9.08E-14
same,"N-arachidonoyl dopamine level, Mean",[6],BDL
same,"N-arachidonoyl ethanolamine level, Mean",[6],3.81E-11
same,"N-arachidonoyl glycine level, Mean",[6],4.39E-12
same,"N-arachidonoyl methionine level, Mean",[6],1.8E-13
same,"N-arachidonoyl phenylalanine level, Mean",[6],5.45E-13
same,"N-arachidonoyl proline level, Mean",[6],BDL
same,"N-arachidonoyl serine level, Mean",[6],7.6E-12
same,"N-arachidonoyl taurine level, Mean",[6],1.38E-11
same,"N-arachidonoyl tryptophan level, Mean",[6],BDL
same,"N-arachidonoyl tyrosine level, Mean",[6],3.91E-13
same,"N-docosahexaenoyl GABA level, Mean",[6],1.45E-12
same,"N-docosahexaenoyl alanine level, Mean",[6],PISSR
same,"N-docosahexaenoyl ethanolamine level, Mean",[6],5.23E-11
same,"N-docosahexaenoyl glycine level, Mean",[6],5.53E-13
same,"N-docosahexaenoyl leucine level, Mean",[6],1.28E-13
same,"N-docosahexaenoyl methionine level, Mean",[6],BDL
same,"N-docosahexaenoyl phenylalanine level, Mean",[6],6.24E-13
same,"N-docosahexaenoyl proline level, Mean",[6],BDL
same,"N-docosahexaenoyl serine level, Mean",[6],1.85E-11
same,"N-docosahexaenoyl tryptophan level, Mean",[6],BDL
same,"N-docosahexaenoyl tyrosine level, Mean",[6],5.71E-13
same,"N-docosahexaenoyl valine level, Mean",[6],PISSR
same,"N-linoleoyl GABA level, Mean",[6],1.04E-12
same,"N-linoleoyl alanine level, Mean",[6],PISSR
same,"N-linoleoyl ethanolamine level, Mean",[6],5.21E-11
same,"N-linoleoyl glycine level, Mean",[6],2.23E-13
same,"N-linoleoyl leucine level, Mean",[6],3.86E-14
same,"N-linoleoyl methionine level, Mean",[6],BDL
same,"N-linoleoyl phenylalanine level, Mean",[6],1.31E-13
same,"N-linoleoyl proline level, Mean",[6],BDL
